In patent US6759557B2, “Melanin production inhibitors and skincare products containing such inhibitors” (Takasago International Corporation, priority 2001, dated 2004):

Legend:
melanoma cells B-16 = assay: Inhibiting effect on melanin synthesis in pigment cells (whiteness of cell residue observed by eye); format: cell-based; set-up: key to whiteness of cells rated by eye (melanin synthesis inhibition): −: same colour as the comparative solvent example (black); +: slight colour difference from the comparative solvent example (black grey); ++: clear colour difference from the comparative solvent example (white grey); +++: no colour in the cells (white); settings: for whiteness of cells rated by eye (melanin synthesis inhibition): 4 days, B-16 melanoma cells
Method: In plastic culture flasks ([…]), 5×10^4 of melanoma cells B-16 were respectively inoculated and cultivated at 37° C. in DMEM culture media each containing 10% of blood serum (Nippon Suisan Co. Ltd) in the presence of 5% of carbon dioxide. After two days of cultivation, test samples diluted with ethanol were added to the culture media, so as to set their concentrations, respectively, at 1.6, 3.1 and 6.3 ppm for the compounds of Formula (1) where X is —CO— or —CHOH—, and at 0.8, 1.6 and 3.1 ppm for the compounds of Formula (1) where X is —CO—CHOH—. The culture media were further cultivated for 4 days.
When the cultivation was terminated, the culture media were removed from the respective flasks and the remaining cells were rinsed with a phosphate buffer solution (PBS hereinafter). The cells in each flask were treated with a culture medium containing trypsin and EDTA (ethylenediaminetetracetic acid) to yield cell suspensions. The latter were subjected to centrifugation, and the cells were recovered.
The obtained cells were once washed with PBS. The residues were observed by eye, and their whiteness was rated as below.

melting point [°C] | Structure (SMILES) | whiteness of cells rated by eye (melanin synthesis inhibition) (melanoma cells B-16; 1.6 ppm in culture medium) | whiteness of cells rated by eye (melanin synthesis inhibition) (melanoma cells B-16; 3.1 ppm in culture medium) | whiteness of cells rated by eye (melanin synthesis inhibition) (melanoma cells B-16; 6.3 ppm in culture medium) | whiteness of cells rated by eye (melanin synthesis inhibition) (melanoma cells B-16; 0.8 ppm in culture medium) | melanin synthesis inhibiting activity (in words) (melanoma cells B-16; concentration not given)
 | OC1CCCCCCCC=CCCCCCCC1 (mixture of isomers) [9(EZ)-cycloheptadecenol] | + | ++ | +++ |  | 
 | CCCCCCCCCCCCC(C)=O [2-tetradecanone, reference compound] |  | − | − |  | 
 | O=C1CCCCCCCCC=CCCCCCCC1O (centres unmarked) [2-hydroxy-9-cyclooctadecenone] | ++ | +++ |  | + | 
 | O=C1CCCCCCCCCCCCCCC1 [cyclohexadecanone] | + | ++ | +++ |  | 
 | OC1CCCCCCCCC=CCCCCCCCCC1 (mixture of isomers) [10(EZ)-cycloeicosenol] | ++ | +++ | +++ |  | 
 | CCCCCCCC(=O)CCCCCCC [8-pentadecanone, reference compound] |  | − | − |  | 
 | OC1CCCCCCCCCCCCCC1 [cyclopentadecanol] | + | ++ | +++ |  | 
 | OC[C@H]1O[C@@H](Oc2ccc(O)cc2)[C@H](O)[C@@H](O)[C@@H]1O [arbutin, reference compound] | − | + | ++ |  | much weaker melanin-synthesis inhibiting activities
 | O=C1CCCCCCCC=CCCCCCCC1 (mixture of isomers) [9(EZ)-cycloheptadecenone] | + | ++ | +++ |  | 
 | O=C1CCCCCCCCCCC1 [cyclododecanone, reference compound] |  | − | + |  | 
 | O=C1CCCCCCCCCCCCCCCCCCC1O (centres unmarked) [2-hydroxycycloeicosanone] | +++ | +++ |  | ++ | 
31 to 32 | O=C1CCCCCCCCCCCCCCCCC1O (centres unmarked) [2-hydroxycyclooctadecanone] | ++ | +++ |  | + | 
 | CCCCCCCCC(=O)CCCCCCCC [9-heptadecanone, reference compound] |  | − | − |  | 
 | CC(O)CCC1C(C)CCCC1(C)C (centres unmarked) [tetrahydroionol, reference compound] | − | + | ++ |  | 
 | O=C1CCCCCCCCC=CCCCCCCCCC1 (mixture of isomers) [10(EZ)-cycloeicosenone] | ++ | +++ | +++ |  | 
39 to 40 | O=C1CCCCCCCCCCCCCCCCCCCCCCC1O (centres unmarked) [2-hydroxycyclotetracosanone] | +++ | +++ |  | ++ | 
 | O=C1CCCCCCCCCCCCCC1 [cyclopentadecanone] | + | ++ | +++ |  | 
 | O=C1CCCCCCCCCCCCCCCCCCC1 [cycloeicosanone] | + | ++ | +++ |  | 
 | OC1CCCC=CCCCCCCCCCC1 (mixture of isomers) [5(EZ)-cyclohexadecenol] | + | ++ | +++ |  | 

melting point [°C] | Structure (SMILES) | whiteness of cells rated by eye (melanin synthesis inhibition) (melanoma cells B-16; 1.6 ppm in culture medium) | whiteness of cells rated by eye (melanin synthesis inhibition) (melanoma cells B-16; 3.1 ppm in culture medium) | whiteness of cells rated by eye (melanin synthesis inhibition) (melanoma cells B-16; 6.3 ppm in culture medium) | whiteness of cells rated by eye (melanin synthesis inhibition) (melanoma cells B-16; 0.8 ppm in culture medium) | melanin synthesis inhibiting activity (in words) (melanoma cells B-16; concentration not given)
 | CC1C=CCCCCCCCCCCC(=O)CC1 (mixture of isomers) [5(EZ)-4-methylcyclohexadecenone] | + | ++ | +++ |  | 
 | O=C1CCCCCCCCCCCCCCC=CCCCCCCCCCCCCC1O (centres unmarked) [2-hydroxy-15-cyclotriacontenone, reference compound] |  | − |  |  | 
 | O=C1CCCCCCCCCCCCCC1O (centres unmarked) [2-hydroxycyclopentadecanone, reference compound] | − | − | +++ |  | 
 | O=C1CCC/C=C\CCCCCCCCCC1 [5(Z)-cyclohexadecenone] | + | ++ | +++ |  | 
 | OC1CCCCCCCCCCC1 [cyclododecanol, reference compound] |  | − | + |  | 
 | O=C1CCCCCCCCCCCCCCCC1 [cycloheptadecanone] | + | ++ | +++ |  | 
 | O=C1CCCCCCCCCCCCCCC1O (centres unmarked) [2-hydroxycyclohexadecanone] | − | + |  |  | 
 | CC1CCCCCCCCCCCCC(=O)C1 (centres unmarked) [1-3-methylcyclopentadecanone] | + | ++ | +++ |  | 
 | O=C1CCCCCCCC=CCCCCCC1O (centres unmarked) [2-hydroxy-8-cyclohexadecenone] | − | + |  |  | 
 | O=C1CCCCCCCCCC=CCCCCCCCC1O (centres unmarked) [2-hydroxy-10-cycloeicosenone] | +++ | +++ |  | ++ | 
 | OC1CCCCCCCCCCCCCCC1 [cyclohexadecanol] | + | ++ | +++ |  | 
 | O=C1CCCCCCCCCCCC=CCCCCCCCCCC1O (centres unmarked) [2-hydroxy-12-cyclotetracosenone] | +++ | +++ |  | ++ | 
 | O=C1CCC/C=C/CCCCCCCCCC1 [5(E)-cyclohexadecenone] | + | ++ | +++ |  | 
 | CC1C=CCCCCCCCCCCC(O)CC1 (mixture of isomers) [5(EZ)-4-methylcyclohexadecenol] | + | ++ | +++ |  | 
 | CC(=O)CCC1=C(C)CCCC1(C)C [dihydro-β-ionone, reference compound] | − | + | ++ |  | 
 | CCCCCCCCCCCCCC(=O)CC [3-hexadecanone, reference compound] |  | − | − |  | 
 | CC1/C=C/CCCCCCCCCCC(=O)CC1 (centres unmarked) [5(E)-4-methylcyclohexadecenone] | + | ++ | +++ |  | 
 | OC1CCCCCCCCCCCCCCCC1 [cycloheptadecanol] | + | ++ | +++ |  | 
